Assay: solution-based β-gal activity assay (ONPG hydrolysis)
Format: biochemical
Protocol: For the solution-based activity assay, β-gal fragments were added, either individually or in complementing pairs, to uncoated 96-well microtiter assay plates in equal molar amounts and incubated at room temperature on an orbital rocker for 1 hr. Full-length β-gal (1 mg/ml) was serially diluted to create a standardized concentration curve. At time zero, the assay was initiated by using a 12-channel pipettor to add 20 μl of ONPG (4 mg/ml) to each well of the microplate. In the endpoint assay, the microplates were incubated at room temperature for the appropriate length of time, e.g., 30 min, before the reaction was terminated by the addition of 50 μl of 1 M Na2CO3. Then, the absorbance (420 nm) was read in a Tecan Infinite 200 plate reader (Tecan; San Jose, CA). The absorbance data was transferred to a Microsoft Excel spreadsheet and the amount of ONPG substrate hydrolyzed was calculated.
To test the ability of the split-fragments to spontaneously refold and aggregate into tetramers in solution, complementing pairs of β-gal fragments were combined and assessed in a solution-based activity assay. Levels of active β-gal expression were measured by its catalytic hydrolysis of ortho-nitrophenyl-β-D-galactopyranoside (ONPG), a synthetic chromogenic substrate, to orthonitrophenol (ONP), a yellow product (λmax=420 nm). […]

Full length β-gal: purified full length biotinylated E. coli β-galactosidase prepared in the laboratory, 135 kDa
time at which optimally active (19 hour incubation period, FIG. 7C): 30 min | enzyme activity versus commercially available purchased β-gal (increasing amounts of enzyme, FIG. 7A): virtually identical
